Common to all, as to assay type: functional
In experiment [1] the test system is Thanatephorus cucumeris. Kind of experiment: Fungicidal activity against Thanatephorus cucumeris assessed as rice sheath blight disease control at 31.3 ppm foliar application for 24 hr before inoculation at 26 +- 2 measured after 5 days by preventive manner.
Experiment [2] deals with Thanatephorus cucumeris. Kind of experiment: Fungicidal activity against Thanatephorus cucumeris assessed as rice sheath blight disease control at 7.8 ppm foliar application for 24 hr before inoculation at 26 +- 2 measured after 5 days by preventive manner.
The subject of experiment [3] is Thanatephorus cucumeris. Kind of experiment: Fungicidal activity against Thanatephorus cucumeris assessed as rice sheath blight disease control at 2 ppm foliar application for 24 hr before inoculation at 26 +- 2 measured after 5 days by preventive manner.
Experiment [4] relates to Pyricularia oryzae. Kind of experiment: Fungicidal activity against Magnaporthe oryzae assessed as rice blast disease control at 10 ppm submerged application measured after 7 days.
Experiment [5] deals with Pyricularia oryzae. Kind of experiment: Fungicidal activity against Magnaporthe oryzae assessed as rice blast disease control at 2.5 ppm submerged application measured after 7 days.
The subject of experiment [6] is Pyricularia oryzae. The experiment is described as follows: Fungicidal activity against Magnaporthe oryzae assessed as rice blast disease control at 0.63 ppm submerged application measured after 7 days.
The test system of experiment [7] is Pyricularia oryzae. The experiment is described as follows: Fungicidal activity against Magnaporthe oryzae assessed as rice blast disease control at 0.16 ppm submerged application measured after 7 days.
Experiment [8] deals with Pseudoperonospora cubensis. Kind of experiment: Fungicidal activity against Pseudoperonospora cubensis assessed as cucumber downy mildew disease control at 125 ppm foliar application 24 hr before inoculation on upper surface of leaf by preventive manner.
The subject of experiment [9] is Pseudoperonospora cubensis. Kind of experiment: Fungicidal activity against Pseudoperonospora cubensis assessed as cucumber downy mildew disease control at 31.3 ppm foliar application 24 hr before inoculation on upper surface of leaf by preventive manner.
Experiment [10] has as its system Pseudoperonospora cubensis. Kind of experiment: Fungicidal activity against Pseudoperonospora cubensis assessed as cucumber downy mildew disease control at 7.8 ppm foliar application 24 hr before inoculation on upper surface of leaf by preventive manner.
For experiment [11], the system named is Pseudoperonospora cubensis. Kind of experiment: Fungicidal activity against Pseudoperonospora cubensis assessed as cucumber downy mildew disease control at 2 ppm foliar application 24 hr before inoculation on upper surface of leaf by preventive manner.
Experiment [12] relates to Podosphaera fuliginea. The experiment is described as follows: Fungicidal activity against Podosphaera fuliginea assessed as cucumber powdery mildew control under greenhouse at 125 ppm foliar application 24 hr before inoculation on upper surface of leaf at 23 +/- 2 degC by preventive manner.
Experiment [13] has as its system Podosphaera fuliginea. The experiment is described as follows: Fungicidal activity against Podosphaera fuliginea assessed as cucumber powdery mildew control under greenhouse at 31.3 ppm foliar application 24 hr before inoculation on upper surface of leaf at 23 +/- 2 degC by preventive manner.
For experiment [14], the system named is Podosphaera fuliginea. Kind of experiment: Fungicidal activity against Podosphaera fuliginea assessed as cucumber powdery mildew control under greenhouse at 7.8 ppm foliar application 24 hr before inoculation on upper surface of leaf at 23 +/- 2 degC by preventive manner.
Experiment [15] concerns Podosphaera fuliginea. Kind of experiment: Fungicidal activity against Podosphaera fuliginea assessed as cucumber powdery mildew control under greenhouse at 2 ppm foliar application 24 hr before inoculation on upper surface of leaf at 23 +/- 2 degC by preventive manner.
In experiment [16] the test system is Thanatephorus cucumeris. Kind of experiment: Fungicidal activity against Thanatephorus cucumeris assessed as rice sheath blight disease control at 125 ppm foliar application for 24 hr before inoculation at 26 +- 2 measured after 5 days by preventive manner.

Regarding `CNC(=O)/C(=N/OC)c1ccccc1Oc1cccc(O)c1`, the Activity is on record as 70% in the experiment with Thanatephorus cucumeris [1]; 70% in the experiment on Thanatephorus cucumeris [2]; 70% in the experiment with Thanatephorus cucumeris [3]; 50% with Pyricularia oryzae [4]; 50% in the experiment on Pyricularia oryzae [5]; 50% in the experiment with Pyricularia oryzae [6]. In addition, the Activity in the experiment on Pyricularia oryzae [7] is given as 50%; in experiment [8], <70%; in experiment [9] it was <70%; in experiment [10], <70%; in [11], <70%; in the experiment with Podosphaera fuliginea [12] it was <70%. Besides, the Activity with Podosphaera fuliginea [13] is on record as <70%; in the experiment with Podosphaera fuliginea [14], <70%; with Podosphaera fuliginea [15], <70%; with Thanatephorus cucumeris [16] it was 70%.

`CO/N=C(/C(=O)N(C)C)c1ccccc1Oc1ccccc1`: the Activity is given as 70% with Thanatephorus cucumeris [1]; 70% in the experiment with Thanatephorus cucumeris [2]; 70% with Thanatephorus cucumeris [3]; <70% in experiment [8]; <70% in experiment [9]; <70% in experiment [10]. The Activity in [11] is <70%; with Podosphaera fuliginea [12] it was 70%; with Podosphaera fuliginea [13], 70%; with Podosphaera fuliginea [14] it was 70%; in the experiment on Podosphaera fuliginea [15], 70%; with Thanatephorus cucumeris [16], 70%.

In the case of `CNC(=O)/C(=N/OC)c1ccccc1OCc1ccccc1`, the Activity (in the experiment on Thanatephorus cucumeris [1]; in the experiment with Thanatephorus cucumeris [2]; in the experiment on Thanatephorus cucumeris [3]; in [8]; in experiment [9]; in experiment [10]) was 70% throughout. Moreover, the Activity (in [11]; in the experiment on Podosphaera fuliginea [12]; with Podosphaera fuliginea [13]; in the experiment with Podosphaera fuliginea [14]; in the experiment on Podosphaera fuliginea [15]; in the experiment with Thanatephorus cucumeris [16]) was 70% each time.

For the molecule `CNC(=O)/C(=N/OC)c1ccccc1/C=C\c1ccccc1`, the Activity (in the experiment with Thanatephorus cucumeris [1]; with Thanatephorus cucumeris [2]; in the experiment on Thanatephorus cucumeris [3]; in experiment [8]; in experiment [9]; in [10]) was 70% throughout. Also, the Activity (in [11]; in the experiment on Podosphaera fuliginea [12]; in the experiment on Podosphaera fuliginea [13]; in the experiment with Podosphaera fuliginea [14]; with Podosphaera fuliginea [15]; with Thanatephorus cucumeris [16]) was 70% each time.

Consider `CNC(=O)/C(=N/OC)c1ccccc1/C=C/c1ccccc1`, for which the Activity in the experiment on Thanatephorus cucumeris [1] is <70%; in the experiment on Thanatephorus cucumeris [2], <70%; with Thanatephorus cucumeris [3], <70%; in experiment [8], 70%; in experiment [9], 70%; in [10] it was 70%. Further, the Activity in [11] is reported as 70%; in the experiment on Podosphaera fuliginea [12], 70%; in the experiment on Podosphaera fuliginea [13], 70%; with Podosphaera fuliginea [14] it was 70%; in the experiment with Podosphaera fuliginea [15] it was 70%; in the experiment with Thanatephorus cucumeris [16] it was <70%.

As for `CNC(=O)/C(=N/OC)c1ccccc1C(=O)c1ccccc1`, the Activity (with Thanatephorus cucumeris [1]; in the experiment on Thanatephorus cucumeris [2]; in the experiment with Thanatephorus cucumeris [3]; in experiment [8]; in experiment [9]; in [10]) was <70% in each case. The Activity (in [11]; with Podosphaera fuliginea [12]; in the experiment on Podosphaera fuliginea [13]; with Podosphaera fuliginea [14]; with Podosphaera fuliginea [15]; in the experiment on Thanatephorus cucumeris [16]) was <70% each time.

As to `CNC(=O)/C(=N/OC)c1ccccc1NCc1ccccc1`, the Activity (in the experiment on Thanatephorus cucumeris [1]; in the experiment on Thanatephorus cucumeris [2]; in the experiment on Thanatephorus cucumeris [3]; in experiment [8]; in [9]; in experiment [10]) was <70% throughout. In addition, the Activity (in experiment [11]; with Podosphaera fuliginea [12]; in the experiment on Podosphaera fuliginea [13]; in the experiment on Podosphaera fuliginea [14]; in the experiment with Podosphaera fuliginea [15]; with Thanatephorus cucumeris [16]) was <70% each time.

In the case of `CNC(=O)/C(=N/OC)c1ccccc1C(=O)Oc1ccccc1`, the Activity (in the experiment with Thanatephorus cucumeris [1]; in the experiment on Thanatephorus cucumeris [2]; with Thanatephorus cucumeris [3]; in experiment [8]; in experiment [9]; in experiment [10]) was <70% throughout. For the same molecule, the Activity in experiment [11] is given as <70%; in the experiment with Podosphaera fuliginea [12] it was 70%; with Podosphaera fuliginea [13] it was 70%; in the experiment with Podosphaera fuliginea [14], 70%; in the experiment on Podosphaera fuliginea [15], 70%; in the experiment with Thanatephorus cucumeris [16], <70%.

With `CNC(=O)/C(=N/OC)c1ccccc1SCc1ccccc1`, the Activity (in the experiment with Thanatephorus cucumeris [1]; in the experiment on Thanatephorus cucumeris [2]; in the experiment with Thanatephorus cucumeris [3]; in experiment [8]; in [9]; in [10]) was 70% each time. Further, the Activity (in experiment [11]; in the experiment on Podosphaera fuliginea [12]; in the experiment with Podosphaera fuliginea [13]; in the experiment with Podosphaera fuliginea [14]; with Podosphaera fuliginea [15]; in the experiment on Thanatephorus cucumeris [16]) was 70% throughout.

For `CNC(=O)/C(=N/OC)c1cccc(Oc2ccccc2)c1`, the Activity in the experiment with Thanatephorus cucumeris [1] was 70%; with Thanatephorus cucumeris [2], 70%; with Thanatephorus cucumeris [3] it was 70%; in experiment [8], <70%; in [9], <70%; in experiment [10] it was <70%. Further, the Activity in [11] is <70%; with Podosphaera fuliginea [12], 70%; with Podosphaera fuliginea [13] it was 70%; with Podosphaera fuliginea [14] it was 70%; in the experiment with Podosphaera fuliginea [15], 70%; in the experiment on Thanatephorus cucumeris [16], 70%.

With `CNC(=O)/C(=N/OC)c1cc(C)ccc1Oc1ccccc1`, the Activity (in the experiment with Thanatephorus cucumeris [1]; in the experiment on Thanatephorus cucumeris [2]; with Thanatephorus cucumeris [3]; in experiment [8]; in experiment [9]; in [10]) was 70% in each case. The Activity (in experiment [11]; in the experiment with Podosphaera fuliginea [12]; in the experiment on Podosphaera fuliginea [13]; in the experiment with Podosphaera fuliginea [14]; in the experiment on Podosphaera fuliginea [15]; in the experiment with Thanatephorus cucumeris [16]) was 70% throughout.

Take `CNC(=O)/C(=N/O)c1ccccc1Oc1ccccc1`: the Activity (in the experiment on Thanatephorus cucumeris [1]; in the experiment with Thanatephorus cucumeris [2]; with Thanatephorus cucumeris [3]; in experiment [8]; in experiment [9]; in [10]) was <70% in each case. Further, the Activity (in experiment [11]; in the experiment with Podosphaera fuliginea [12]; in the experiment with Podosphaera fuliginea [13]; in the experiment with Podosphaera fuliginea [14]; with Podosphaera fuliginea [15]; with Thanatephorus cucumeris [16]) was <70% each time.
